pEC50: −log10 of the molar value.
Legend:
[1] = target: T1, MsepOR13/Orco (MsepOR13/MsepOrco) (Mythimna separata, UniProt A0A650FIP0); assay: two-electrode voltage clamp, Xenopus oocytes, dose-response; format: cell-based
T1 construct: gene OR13; full-length untagged MsepOR13, 408 aa (ORF 1227 bp), cloned from adult antennal cDNA; pT7Ts cRNA, Xenopus oocytes; with Odorant receptor coreceptor
T1 sequence (A0A650FIP0 1-408): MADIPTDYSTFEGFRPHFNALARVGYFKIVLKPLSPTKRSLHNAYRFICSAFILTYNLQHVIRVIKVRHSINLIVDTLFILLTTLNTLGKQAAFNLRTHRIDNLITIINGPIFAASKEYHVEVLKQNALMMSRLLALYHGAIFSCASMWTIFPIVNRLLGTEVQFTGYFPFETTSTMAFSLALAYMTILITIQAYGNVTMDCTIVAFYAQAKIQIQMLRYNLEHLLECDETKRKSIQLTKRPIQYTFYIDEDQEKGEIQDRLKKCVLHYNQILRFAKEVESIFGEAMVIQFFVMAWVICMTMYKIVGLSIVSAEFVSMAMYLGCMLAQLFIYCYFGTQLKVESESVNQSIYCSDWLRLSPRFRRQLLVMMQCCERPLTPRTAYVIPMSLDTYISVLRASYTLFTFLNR
T1 sequence (B5MEJ5 1-473 partner): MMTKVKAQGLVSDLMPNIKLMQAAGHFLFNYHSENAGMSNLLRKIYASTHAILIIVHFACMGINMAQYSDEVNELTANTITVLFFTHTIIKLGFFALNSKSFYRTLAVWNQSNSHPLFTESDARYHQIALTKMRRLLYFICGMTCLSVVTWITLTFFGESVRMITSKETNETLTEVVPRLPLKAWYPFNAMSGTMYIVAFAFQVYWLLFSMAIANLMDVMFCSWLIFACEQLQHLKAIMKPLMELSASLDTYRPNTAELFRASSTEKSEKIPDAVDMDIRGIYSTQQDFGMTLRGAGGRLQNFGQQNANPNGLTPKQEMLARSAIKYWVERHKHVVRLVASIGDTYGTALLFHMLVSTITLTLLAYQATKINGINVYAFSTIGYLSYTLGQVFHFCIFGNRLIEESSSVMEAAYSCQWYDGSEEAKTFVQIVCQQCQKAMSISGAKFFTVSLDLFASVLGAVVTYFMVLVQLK

[2] = target: T1, MsepOR13/Orco (MsepOR13/MsepOrco); assay: two-electrode voltage clamp, Xenopus oocytes, single concentration; format: cell-based; conditions: MsepOrco co-expressed; holding potential -80 mV; 15 s exposure at 10^-4 M; agonist

| SMILES | pEC50 [1] | current response at 10^-4 M [2] |
| --- | --- | --- |
| C=CCc1ccc(O)c(OC)c1 [Eugenol] | 5.41 | – |
| CCCCCCO [1-Hexanol] | – | 60 nA |
| C=CCc1ccc(OC)c(OC)c1 [Methyl eugenol] | – | ~ 1655 nA |
| CC(=O)c1ccccc1 [Acetophenone] | – | 523.3 nA |
